The record followed here is patent publication US10323019B2, “Pyrazolylaminobenzimidazole derivatives as JAK inhibitors” (Eli Lilly and Company, priority 2016, dated 2019).

By IC50 is commonly meant the concentration at which inhibition is half-maximal. A high value points to a need for much substance.

For test [1], the target named is T1, JAK1 (Homo sapiens (Human), UniProt P23458). As to the kind of experiment: AlphaScreen SureFire p-STAT3-(p-Tyr705)-IL6-TF-1-JAK1 cell-based assay. The settings on record: TF-1 cells, IL6 30 ng/mL, pSTAT3. The method, then: AlphaScreen SureFire Protocol p-STAT3-(p-Tyr705)-IL6-TF-1-JAK1 Cell-Based Assay
T1 sequence (P23458 whole entry): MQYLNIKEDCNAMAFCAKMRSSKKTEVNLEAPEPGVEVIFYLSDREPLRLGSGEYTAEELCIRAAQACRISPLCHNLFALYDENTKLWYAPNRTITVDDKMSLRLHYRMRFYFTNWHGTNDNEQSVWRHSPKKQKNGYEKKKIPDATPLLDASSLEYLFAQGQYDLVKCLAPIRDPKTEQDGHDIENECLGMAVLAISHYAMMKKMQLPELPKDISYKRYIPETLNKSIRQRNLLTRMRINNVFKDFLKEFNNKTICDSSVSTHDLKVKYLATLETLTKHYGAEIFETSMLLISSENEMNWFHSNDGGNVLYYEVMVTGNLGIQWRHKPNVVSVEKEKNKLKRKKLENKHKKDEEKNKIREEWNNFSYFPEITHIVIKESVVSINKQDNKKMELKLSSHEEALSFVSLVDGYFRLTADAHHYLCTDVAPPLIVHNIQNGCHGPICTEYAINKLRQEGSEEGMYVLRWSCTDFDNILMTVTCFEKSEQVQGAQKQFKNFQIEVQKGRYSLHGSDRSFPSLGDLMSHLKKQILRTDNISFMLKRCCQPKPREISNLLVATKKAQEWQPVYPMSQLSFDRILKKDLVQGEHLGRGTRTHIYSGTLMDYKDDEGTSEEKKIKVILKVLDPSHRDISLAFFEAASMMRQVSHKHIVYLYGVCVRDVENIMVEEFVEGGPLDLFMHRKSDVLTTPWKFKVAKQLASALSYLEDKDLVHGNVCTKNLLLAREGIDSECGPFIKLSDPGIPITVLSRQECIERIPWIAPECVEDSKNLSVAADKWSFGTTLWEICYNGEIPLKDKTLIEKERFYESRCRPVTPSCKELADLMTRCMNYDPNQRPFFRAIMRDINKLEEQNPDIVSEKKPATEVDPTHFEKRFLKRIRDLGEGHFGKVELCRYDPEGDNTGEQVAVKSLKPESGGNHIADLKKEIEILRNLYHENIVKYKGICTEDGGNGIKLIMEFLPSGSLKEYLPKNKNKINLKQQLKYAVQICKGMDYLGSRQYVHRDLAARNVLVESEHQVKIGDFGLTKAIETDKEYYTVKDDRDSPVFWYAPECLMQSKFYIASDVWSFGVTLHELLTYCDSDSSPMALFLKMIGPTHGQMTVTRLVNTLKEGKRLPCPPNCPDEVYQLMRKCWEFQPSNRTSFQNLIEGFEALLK
The JAK1 cell based assay described below is used to determine the JAK1 cellular potency of test compounds.
Cell preparation: Starve TF-1 cells in DMEM medium with 0.5% […] and 1× Pen/Strep at 37° C. Plate 100K cells per well in BD 96 well black plates with clear bottoms. Maintain the plates at RT for 30-60 minutes before incubating overnight at 37° C., and 5% CO2. Count cells using Vi-Cell counter, using a cell suspension at […] and plated 100 μL/well in […] Biocoat plates (Catalog #354640).
Test compound preparation and treatment: Prepare compounds at 1:3 serial dilutions in DMSO and further dilute into the medium. Test compounds in a range of 10 point concentrations from 20,000 to 1 nM. Add diluted compound to corresponding cell plates. Incubate the plates at 37° C. for 20 min. Add IL6 solution at the final concentration 30 ng/mL to corresponding cell plates and continue to incubate at 37° C. for 30 min. Remove media and add 50 μL 1× lysis buffer to each well.
pSTAT3 detection: Perform the following steps sequentially: make acceptor mix (activation buffer/reaction buffer/acceptor beads); transfer 4 μL lysate from 96 well plates to 384 well-Proxiplates; add 5 μL acceptor mix to 384 proxiplate plate(s) and seal plates with aluminum seal; shake 1-2 minutes on plate shaker; incubate plate at RT for 2 hr with gentle shaking; make donor mix (donor beads in dilution buffer); add 2 μL donor mix to assay plates; seal plates with aluminum seal; shake 1-2 minutes on plate shaker; incubate at RT for 2 hr with gentle shaking; read plate with Envision; protocol AlphaScreen Surefire 384.

Test [2] addresses T1, JAK1. As to the kind of experiment: JAK LanthaScreen Kinase Assay (TR-FRET), JAK1 in vitro enzyme assay. The class given is biochemical. To be noted: 20.0 μM ATP. The method, then:
(§1) The JAK LanthaScreen™ Kinase Assay (Invitrogen) is used to determine the ability of test compounds to inhibit JAK1, JAK2, and JAK3 kinase activity. These are TR-FRET assay formats that use long-lifetime terbium labeled antibody as the donor species and GFP-STAT1 as the acceptor species. Use the TR-FRET ratio to monitor JAK kinase activity where an increase in phosphorylation of the GFP-STAT1 results in an increase in the TR-FRET ratio. Perform the kinase reaction using a 12.5 μl reaction volume in shallow black 384-well Proxiplate®. Add reagents to obtain final reaction conditions of […], 1.76 mM Triton X-100, ATP (20.0 μM for JAK1 and JAK3 or 5 μM for JAK2) enzyme assays, 10.0 mM MgCl2, 1 mM EGTA and 0.01% Brij-35, […] GFP-STAT1, 14 nM JAK1 enzyme for JAK1, 1.0 nM for JAK2 or 2.5 nM for JAK3 enzyme assays, and 4% DMSO and serial dilutions of test compound (diluted 1:3 from 20,000 to 1 nM). Following ATP/GFP-STAT1 addition, centrifuge the assay plates for 1 minute at 1000 revolutions per minute (RPM). Allow the plates to incubate at RT for 60 minutes and then add 12.5 μl of a stopping buffer containing 20 mM EDTA, 2 nM Terbium-anti-phosphorylated Signal Transducers and Activators of Transcription [phosphorylation Tyrosine 701 amino acid] […] Use ACTIVITYBASE® 4.0 to fit the percent inhibition and ten-point compound concentration data to a four-parameter logistic equation.
A general note: Time-resolved FRET reads energy transfer from a long-lived donor to a nearby acceptor.

The target of the next test is JAK3 (Homo sapiens (Human), UniProt P52333). Briefly: JAK LanthaScreen Kinase Assay (TR-FRET), JAK3 in vitro enzyme assay. The format is biochemical. To be noted: 20.0 μM ATP. The method, then:
as §1

A further test has as its target JAK2 (Homo sapiens (Human), UniProt O60674). As to the kind of experiment: JAK LanthaScreen Kinase Assay (TR-FRET), JAK2 in vitro enzyme assay. The settings on record: 5 μM ATP. The class given is biochemical. The method, then: as §1

Sequence of JAK3 (P52333 whole entry): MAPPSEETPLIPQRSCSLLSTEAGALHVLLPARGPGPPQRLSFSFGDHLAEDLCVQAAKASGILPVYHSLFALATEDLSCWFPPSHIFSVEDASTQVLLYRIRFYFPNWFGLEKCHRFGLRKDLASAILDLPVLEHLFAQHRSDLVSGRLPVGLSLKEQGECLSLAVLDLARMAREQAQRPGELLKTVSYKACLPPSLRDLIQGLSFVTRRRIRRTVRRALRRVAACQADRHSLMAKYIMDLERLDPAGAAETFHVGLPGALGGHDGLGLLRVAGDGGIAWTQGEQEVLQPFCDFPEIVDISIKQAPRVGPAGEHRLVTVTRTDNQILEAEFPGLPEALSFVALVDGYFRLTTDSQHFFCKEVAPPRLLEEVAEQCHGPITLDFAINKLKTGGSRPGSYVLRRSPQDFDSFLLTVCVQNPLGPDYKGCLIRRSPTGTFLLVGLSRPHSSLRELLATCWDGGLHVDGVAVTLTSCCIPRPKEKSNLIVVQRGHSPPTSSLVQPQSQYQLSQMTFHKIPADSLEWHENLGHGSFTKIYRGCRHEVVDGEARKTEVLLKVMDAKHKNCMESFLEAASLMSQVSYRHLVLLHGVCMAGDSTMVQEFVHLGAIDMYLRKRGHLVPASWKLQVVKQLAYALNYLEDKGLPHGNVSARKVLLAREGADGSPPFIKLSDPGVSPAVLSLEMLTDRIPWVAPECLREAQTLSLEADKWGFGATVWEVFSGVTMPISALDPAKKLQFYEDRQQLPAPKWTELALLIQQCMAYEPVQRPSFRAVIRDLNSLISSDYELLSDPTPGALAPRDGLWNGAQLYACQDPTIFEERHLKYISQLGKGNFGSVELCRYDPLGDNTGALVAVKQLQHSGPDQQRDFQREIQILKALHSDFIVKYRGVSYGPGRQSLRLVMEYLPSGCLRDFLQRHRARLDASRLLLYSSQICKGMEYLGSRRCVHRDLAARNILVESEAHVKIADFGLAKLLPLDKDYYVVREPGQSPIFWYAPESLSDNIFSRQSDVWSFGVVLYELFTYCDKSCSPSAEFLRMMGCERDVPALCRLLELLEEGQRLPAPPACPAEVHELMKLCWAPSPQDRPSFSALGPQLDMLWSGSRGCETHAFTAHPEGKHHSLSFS
Sequence of JAK2 (O60674 whole entry): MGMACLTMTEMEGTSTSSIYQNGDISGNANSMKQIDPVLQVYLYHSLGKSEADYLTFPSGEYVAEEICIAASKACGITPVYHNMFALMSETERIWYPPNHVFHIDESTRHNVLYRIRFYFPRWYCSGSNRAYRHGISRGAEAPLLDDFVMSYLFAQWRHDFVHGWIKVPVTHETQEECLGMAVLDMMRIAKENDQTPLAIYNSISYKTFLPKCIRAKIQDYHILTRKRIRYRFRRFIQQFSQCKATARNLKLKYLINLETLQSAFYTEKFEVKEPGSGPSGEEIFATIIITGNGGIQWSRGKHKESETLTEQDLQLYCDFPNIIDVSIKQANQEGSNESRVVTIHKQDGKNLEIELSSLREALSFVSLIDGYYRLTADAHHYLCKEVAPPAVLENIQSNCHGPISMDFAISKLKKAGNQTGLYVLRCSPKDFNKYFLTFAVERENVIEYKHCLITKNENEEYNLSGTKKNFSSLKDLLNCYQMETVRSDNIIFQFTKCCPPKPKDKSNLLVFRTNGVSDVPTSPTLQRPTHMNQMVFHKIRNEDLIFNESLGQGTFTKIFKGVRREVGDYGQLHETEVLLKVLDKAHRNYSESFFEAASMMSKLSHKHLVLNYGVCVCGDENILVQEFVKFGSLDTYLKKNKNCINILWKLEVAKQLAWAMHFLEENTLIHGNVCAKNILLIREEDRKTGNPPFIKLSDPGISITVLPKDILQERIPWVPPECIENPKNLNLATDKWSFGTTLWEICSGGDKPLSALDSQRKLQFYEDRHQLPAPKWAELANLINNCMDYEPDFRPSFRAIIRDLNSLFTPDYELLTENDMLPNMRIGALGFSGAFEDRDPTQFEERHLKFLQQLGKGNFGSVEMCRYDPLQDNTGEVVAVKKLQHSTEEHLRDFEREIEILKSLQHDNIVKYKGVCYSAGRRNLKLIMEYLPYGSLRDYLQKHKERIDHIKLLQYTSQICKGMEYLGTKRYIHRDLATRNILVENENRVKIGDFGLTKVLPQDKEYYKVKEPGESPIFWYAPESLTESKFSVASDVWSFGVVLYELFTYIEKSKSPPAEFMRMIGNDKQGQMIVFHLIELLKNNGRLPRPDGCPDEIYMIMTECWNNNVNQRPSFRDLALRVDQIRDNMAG

In the case of `COCCn1nc(Nc2cc(O[C@H]3CC[C@@H](NC[C@@H](O)C(F)(F)F)CC3)cc3c2ncn3C)cc1C` [Example 2, (2R)-1,1,1-Trifluoro-3-({cis-4-[(4-{[1-(2-methoxyethyl)-5-methyl-1H-pyrazol-3-yl]amino}-1-methyl-1H-benzimidazol-6-yl)oxy]cyclohexyl}amino)propan-2-ol], the concentration for half-maximal inhibition (IC50) against JAK1 [1] was determined as 0.275 ± 0.102 nM.
In the case of `COCCCn1nc(Nc2cc(O[C@H]3CC[C@@H](NC[C@@H](O)C(F)(F)F)CC3)cc3c2ncn3C)cc1C` [Example 1, (2R)-1,1,1-Trifluoro-3-({cis-4-[(4-{[1-(3-methoxypropyl)-5-methyl-1H-pyrazol-3-yl]amino}-1-methyl-1H-benzimidazol-6-yl)oxy]cyclohexyl}amino)propan-2-ol], the IC50 against JAK1 [1] worked out at 0.154 ± 0.023 nM; at JAK1 [2], 3.25 ± 0.99 nM; against JAK3, 3.72 ± 1.3 µM; against JAK2, 1200 ± 550 nM.
